According to patent US12516052B2, “Methyltransferase 5 (PRMT5) inhibitors and methods of treatment” (THE TRUSTEES OF INDIANA UNIVERSITY, priority 2016, dated 2026):
Entries after “also recorded” stand apart in the source; their conditions may differ.

Key:
PANC1 cells = assay: Anchorage-independent (soft agar) growth assay in PANC1 cells; assay type: cell-based; conditions: increasing concentrations
Protocol: The ability to form colonies suspended in soft agar is a characteristic of cancer cells. By using the stable cell lines established above, an anchorage-independent assay in soft agar was conducted. 2.5% and 1.25% agar were used to prepare the bottom and top layers of the soft agar, respectively. The bottom agar was added to each well of a 6-well plate. 2×10^5 cells for each cell line were then added and mixed into top agar solution and layered on top of the bottom layer. The plates were incubated for 10-20 days at 37° C. and 5% CO2. Images were captured using a Canon EOS Rebel T3i Digital SLR camera (Canon, Woodridge, IL) and quantification of colony size and number was performed using ImageJ. […] A soft agar experiment was also performed to determine the effect of compound (IIa) on colony growth.

NF-κB [1] = assay: NF-κB luciferase assay in HT29 cells; assay type: cell-based; conditions: increasing concentrations
From the text: (§1) Previously, it was discovered that PRMT5 activates NF-κB through methylation of its p65 subunit in HEK293 cells (Wei et al., Proc Natl Acad Sci USA, 2013; 110: 13516-13521; Wei et al., Cell Cycle, 2013; 13: 32-41). As shown in FIGS. 11A and 11B, overexpression of PRMT5 enhances NF-κB activity, while PRMT5 knockdown causes the opposite effect in both PANC1 (FIG. 11A) and HT-29 (FIG. 11B) cells. To determine if compound (IIa) decreases NF-κB activity, cells transfected with a NF-κB luciferase construct were treated with increasing concentrations of compound (IIa) or the control compound EPZ015666.

[2] = test system: CRC cells (HT29, HCT116 and DLD1); assay: MTT cell viability assay in CRC cell lines; assay type: cell-based
Protocol: The PRMT5 inhibitory activity of the compounds from the screen was confirmed using both AlphaLISA and an MTT [(3-(4,5-dimethylthiazolyl-2)-2,5-diphenyltetrazolium bromide)] assay (PerkinElmer, Waltham, MA). For the MTT assay, cells were seeded at 90% confluence in 96-well plates and titrated with different dosages of compound (IIa) for 4 days. Media was then removed and 100 μl of MTT (Sigma-Aldrich, St. Louis, MO) was added per well. Cells were incubated for 2 hours at 37° C. before adding 100 μl of DMSO to each well and quantified with the SYNERGY™ H1 Multi-Mode Reader (BioTek Instruments Inc., Winooski, VT). The expression of PRMT5 was examined in pancreatic ductal adenocarcinoma cells at multiple stages of disease progression and in multiple colorectal cancer cell lines. Pancreatic control (HPNE) and cancer cell lines (PANC1, MiaPaCa2 and AsPC1) were grown in Dulbecco's Modified Eagle Medium (DMEM) (GE Healthcare, Little Chalfont, UK), supplemented with 1% of penicillin/streptomycin, 10% fetal bovine serum (FBS). Colon control (FHC) and cancer (HT29, HCT116, and DLD1) cell lines were maintained in RPMI 1640 Medium (Roswell Park Memorial Institute Medium) (GE Healthcare, Little Chalfont, UK), containing 1% penicillin/streptomycin and 10% FBS, while FHC cells were cultured under the same condition with further addition of 25 mM HEPES (4-(2-hydroxyethyl)-1-piperazineethanesulfonic acid), 10 ng/ml cholera toxin, 0.005 mg/ml insulin, 0.005 mg/ml transferring, and 100 ng/ml hydrocortisone. All cell lines were cultured at 37° C. under 5% CO2. The PDAC and CRC cell lines described above were treated with increasing concentrations of compound (IIa) or the commercially available PRMT5 inhibitor EPZ015666 [drawing 12] and quantified for cell viability using the MTT assay described above. […] A soft agar experiment was also performed to determine the effect of compound (IIa) on colony growth.

NF-κB [3] = assay: NF-κB luciferase assay in PANC1 cells; assay type: cell-based; conditions: increasing concentrations
From the text: as §1

HT29 cells = assay: HT29 subcutaneous xenograft tumor efficacy study in NSG mice; assay type: in vivo; conditions: 20 mg/kg intraperitoneally 3×/week, vs vehicle control, n=4
Protocol: NSG (NOD scid gamma) mice were obtained from the In Vivo Therapeutics Core at Indiana University School of Medicine. After acclimation for 7 days, NSG mice (6-8 weeks old) were xenografted with mycoplasma-free PANC1 or HT29 cells subcutaneously (1×10^7 PANC1 or 3×10^6 HT29 cells used per mouse in 0.2 ml of a 1:1 mix of phosphate-buffered saline and MATRIGEL™) (BD Biosciences, San Jose, CA). Mice were randomized when tumor volumes reached about 100 mm^3. Mice were treated with either vehicle control or 20 mg/kg of compound (Ia) (drug stock dissolved in 1:1 CREMOPHOR™:ethanol solution) intraperitoneally 3 times per week. Tumor volumes and body weights were measured twice a week. The study was performed in accordance with the guidelines and standards of the Institutional Animal Care and Use Committee (IACUC). […] NSG (NOD scid gamma) mice were obtained from the In Vivo Therapeutics Core at Indiana University School of Medicine. After acclimation for 7 days, NSG mice (6-8 weeks old) were xenografted with mycoplasma-free PANC1 or HT29 cells subcutaneously (1×10^7 PANC1 or 3×10^6 HT29 cells used per mouse in 0.2 ml of a 1:1 mix of phosphate-buffered saline and MATRIGEL™) (BD Biosciences, San Jose, CA). Mice were randomized when tumor volumes reached about 100 mm^3. […] Tumor volumes and body weights were measured twice a week. […]

[4] = test system: PRMT5-mediated p65 methylation; assay: Co-immunoprecipitation-Western blot of p65 dimethylation in 293-WT-p65-Flag cells; assay type: cell-based; conditions: 20 μM for 24 hours, compared to untreated control
From the text: FIGS. 2A-D depict the experimental results of studies to determine the PRMT5 inhibitory activity of a compound of formula (II), a compound of formula (III), and a compound of formula (IV). […] Flag beads were used to pull down WT-p65-Flag and samples were then probed with anti-symmetric dimethyl arginine motif Ab (sdme-RG Ab) to detect dimethylation levels of the p65 subunit.
Amongst the hits, the leading compounds were a compound of formula (II), specifically compound (IIa), a compound of formula (III), specifically compound (IIIa), and a compound of formula (IV), specifically compound (Iva). […] To determine whether compound (IIa) reduced p65 methylation of NF-κB, Flag-p65 expressing cells were treated with 20 μM compound (IIa) for 24 hours, Flag-p65 was then pulled down with anti-Flag-M2 beads and analyzed with Western blot by probing with anti-dimethylated arginine (FIG. 2B).

Question: What does the source list for `Cc1ccc(Nc2nc(NCCN(C)C)nc3c2cnn3-c2ccccc2)cc1C` [compound (IIa)]?
Answer: anchorage-independent growth / colony formation, PANC1 (PDAC) (PANC1 cells): strongly inhibited colony formation; also recorded: significant decrease; NF-κB activation (luciferase), HT29 (NF-κB [1]): corresponding decrease in NF-κB activation; cell viability in CRC cells (HT29, HCT116, DLD1), MTT ([2]; increasing concentrations): decreased significantly; IC50 ([2]; range over HT29, HCT116 and DLD1): 10 to 11 µM; NF-κB activation (luciferase), PANC1 (NF-κB [3]): corresponding decrease in NF-κB activation; tumor growth (tumor volume), HT29 xenograft (HT29 cells): significant tumor inhibition effect; also recorded: inhibition of tumor growth; methylation of PRMT5 substrate p65 [4]: significantly inhibited PRMT5-mediated p65 methylation; also recorded: inhibited the methylation of PRMT5 substrate, p65
